{
  "source": "patent US20250082720A1",
  "about": "“NEW PEPTIDE AND USES THEREOF” (Neo Cremar Co., Ltd., priority 2021, published 2025)",
  "format_in_all_cases": "cell-based, mouse",
  "key": {"[1]": {"tested_on": "C2C12 cells", "experiment": "C2C12 myoblast proliferation (MTT method)", "settings": "C2C12, peptide 1000 nM, 1 day, MTT, FIG. 4", "experimental": "C2C12 cells, a mouse myoblast line, were cultured in Dulbecco's Modified Eagle's Medium (DMEM)+10% fetal bovine serum (FBS)+1% penicillin/streptomycin (P/S). To validate the effect of MIF peptide, C2C12 cells (2×10^3 cells/ml) were placed in a 12 well cell culture dish and attached for 24 hours, and MIF2 or Ac-MIF2-NH2 peptide (1000 nM) was treated for 1 day to observe cell proliferation by MTT method. The medium was replaced every 2 days, and the cells were cultured at 37° C.\n(§1) To validate cell proliferation, the culture medium of the cells was removed, the cells were washed with DMEM, 500 μl of MTT reagent (0.5 mg/ml) dissolved in phosphate buffered saline (PBS) was added to each well, and the cells were left at 37° C. for 1 hour. The reaction solution was removed, and 1000 μl of DMSO was added to each well. Purple formazan crystals were completely dissolved in DMSO, and the absorbance was measured at 540 nm."}, "[2]": {"tested_on": "C2C12 cells", "experiment": "Expression of myodifferentiation-related factors (real-time PCR, Western blot, immunocytochemistry)", "experimental": "After adding 1 ml of TRIzol™ reagent, the cells were crushed using a sonicator. After centrifugation of the crushed sample (12,000 rpm, 10 min, 4° C.), the supernatant was transferred to a new tube, added with 200 μl of chloroform, and left at room temperature for 10 minutes. After 10 minutes, centrifugation (12,000 rpm, 10 min, 4° C.) was performed, yielded a transparent supernatant. Next, 500 μl of isopropanol was added, the mixture was left for 10 minutes, and centrifugation was performed to obtain RNA pellets. After washing by adding 70% ethanol (distilled water treated with ethanol+diethylpyrocarbonate (hereinafter referred to as DEPC)) to the RNA pellets, complete removal and drying were followed. The dried transparent RNA was added with DEPC-treated distilled water and then stored at −80° C. Total RNA volume was measured by nanodrop, and the 18s and 28s bands were detected in 1.2% agarose gel. cDNA was synthesized with 2 μg of total RNA, random hexamer primers, and reverse transcriptase (25° C.: 10 min, 37° C.: 120 min, 85° C.: 5 min).\nReal-time PCR (RT-PCR) was performed for detecting gene expression. For observation of real-time gene expression, gene expression was analyzed using the Power SYBR Green PCR Master Mix, which includes fluorescent materials of SYBR green (7500 Real-time PCR system). The PCR primer was designed with Primer 3 software (http://frodo.wi.mit.edu) according to the nucleotide sequence secured from NCBI GenBank. PCR was performed 40 times at 95° C. for 10 minutes, again at 95° C. for 33 seconds, at gene primer temperature (tm) for 33 seconds, and at 72° C. for 33 seconds. Gene expression values were analyzed through the analysis of c(t) values obtained through real-time PCR analysis (fold change 2-ΔΔCt formula). Setting the gene expression value of the untreated cells to 1, the gene expression value of the treated cells was calculated. In the analysis of gene c(t) values, normalization was conducted with the glyceraldehyde-3-phosphate dehydrogenase (GAPDH).\nThe medium of cultured C2C12 cells was removed and washed once with PBS. The washed cells were treated with 4% formaldehyde (Sigma), fixed for 15 minutes, then washed using PBS, added with 0.2% trypton X-100 (Sigma), and left for 5 minutes. After washing again using PBS, adding 1% normal goat serum, and leaving for 30 minutes, the primary antibody (MYOD, myogenin (MYOG): myosin light chain (MYL2); 1:50) was added to carry out a reaction at 4° C. for 14 hours. The antibodies were removed, washing was performed 3 times with PBS for 10 minutes, and then the cells were left with secondary antibody (Alexa Fluor 488 goat anti-Mouse & rabbit SFX kit t) for 1 hour. After 1 hour, the antibodies were removed, washing was performed with PBS for 10 minutes, the nuclei were stained with 4′,6-diamidino-2-phenylindol (DAPI), and the expression of the proteins was observed using fluorescence microscopy.\n(1) The medium of cultured C2C12 cells was removed, followed by washing with PBS. After adding LIPA buffer and protease inhibitor to the washed cells, the proteins included in the supernatant were collected after centrifugation for 10 minutes at 12000 rpm. 40 μg of the extracted proteins were subjected to electrophoresis in 8 to 10% acrylamide gel and then transferred to a polyvinylidene fluoride (PVDF) membrane (Milipore). These were blocked with 3% skim milk or bovine serum albumin (BSA) at room temperature for 1 hour. Afterwards, primary antibody diluted in 1% skim milk or BSA (Pax7; 1:500, MYOD; 1:500, MYOG; 1:400, MYL2; 1:1000, MYH; 1:500, MSTN; 1:1000, β-actin; 1:1000, MuRF1; 1:400, and Atrogin; 1:1:400) was added and reacted at 4° C. for over 16 hours. After 16 hours, cells were washed three times with TBST (Tris-buffered saline with Tween 20) and reacted with secondary antibody with horseradish peroxidase (HRP) conjugated at room temperature for 1 hour. […]"}, "[3]": {"tested_on": "3T3L1 cells", "experiment": "3T3L1 cell proliferation (MTT method)", "settings": "3T3L1, peptide 1000 nM, 2 days, FIG. 13A", "experimental": "3T3L1 cells, mouse fibroblasts, were cultured in Dulbecco's Modified Eagle's Medium (DMEM)+10% fetal bovine serum (FBS)+1% penicillin/streptomycin (P/S). To validate the effect of MIF peptide, 3T3L1 cells (2×10^3 cells/ml) were placed in a 12-well cell culture dish, attached for 24 hours, and treated with MIF peptide (1000 nM) for 2 days, followed by observation of cell proliferation by MTT method. The medium was replaced once every 2 days, and the cells were cultured at 37° C.\nas §1"}, "[4]": {"tested_on": "3T3L1 cells", "experiment": "Adipodifferentiation of 3T3L1 cells (Oil Red O staining)", "settings": "3T3L1, adipocyte differentiation medium, 4 days, FIG. 13B", "experimental": "For differentiation of 3T3L1 cells into adipocytes, when the cells grew about 100% or more, they were replaced with differentiation medium (DMEM+10% FBS+1% P/S+10 μg/ml insulin+1 μM dexametazone+0.5 μM IBMX (3-isobutyl-1-methylxanthine)) and cultured for 2 days. After 2 days, MIF peptide was treated in a medium including 10 μg/ml insulin to induce cell differentiation.\n3T3L1 cells were treated with peptides and differentiated for 4 days, then the medium was removed, and the cells were washed with normal saline, treated with 10% formaldehyde, and left for 10 minutes. After 10 minutes, Oil-red O staining agents (6 ([…] Oil-red O reagent+1 ml 100% isopropanol): 4 (distilled water)) were treated and left for 1 hour. After 1 hour, cells were washed with normal saline and then observed under a microscope. To measure the Oil-red O stained in the intracellularly differentiated cells, 100% isopropanol was added and collected, followed by measurement at 510 nm."}, "[5]": {"tested_on": "C2C12 cells", "experiment": "Scratch experiment, degree of cell recovery", "settings": "C2C12 100% grown, 1000 nM peptide, 1 day", "experimental": "When the C2C12 cells were 100% grown, cells were scratches on the surface, treated with 1000 nM MIF2 or Ac-MIF2-NH2 peptides, and cultured for 1 day, followed by observation for a degree of cell recovery."}, "[6]": {"settings": "C2C12 differentiation, versus control"}, "[7]": {"settings": "C2C12 myodifferentiation, FIG. 8"}},
  "data": [
    {"substance": "Ac-VDFEAGDWFW-NH2 [Ac-MIF2-NH2, MIF2 peptide with acetylated N-terminus and amidated C-terminus]", "values": [
      {"measurement": "increase in cell proliferation compared to cells without peptide treatment", "setting": "[1]", "value": 33, "unit": "%"},
      {"measurement": "MSTN protein expression", "setting": "[2]; [6]", "value": "reduced"},
      {"measurement": "mRNA and protein expression of MYOD, MYOG, MYL2, and MYH", "setting": "[2]; [6]", "value": "increased"},
      {"measurement": "ACVRIIB protein expression", "setting": "[2]; [7]", "value": "reduced"},
      {"measurement": "gene expression of Atrogin1 and MuRF1", "setting": "[2]; [7]", "value": "reduced"},
      {"measurement": "decrease in proliferation compared to cells without peptide treatment", "setting": "[3]", "value": 10, "unit": "%"},
      {"measurement": "decrease in fat accumulation (Oil-red O intensity) compared to cells without peptide treatment", "setting": "[4]", "value": 9, "unit": "%"},
      {"measurement": "increase in scratch recovery degree compared to untreated cells", "setting": "[5]", "value": 26, "unit": "%"}
    ]}
  ]
}
